# Data published in ChEMBL document CHEMBL2331452, “3D-QSAR studies of 1,2-diaryl-1H-benzimidazole derivatives as JNK3 inhibitors with protective effects in neuronal cells” (Bioorg Med Chem Lett, 2013).
# Target: Mitogen-activated protein kinase 10 (Homo sapiens, UniProt P53779)
# Assay: Binding affinity to JNK3 (unknown origin) by surface plasmon resonance analysis in presence of ATP
# Chain of Mitogen-activated protein kinase 10 (P53779 whole entry): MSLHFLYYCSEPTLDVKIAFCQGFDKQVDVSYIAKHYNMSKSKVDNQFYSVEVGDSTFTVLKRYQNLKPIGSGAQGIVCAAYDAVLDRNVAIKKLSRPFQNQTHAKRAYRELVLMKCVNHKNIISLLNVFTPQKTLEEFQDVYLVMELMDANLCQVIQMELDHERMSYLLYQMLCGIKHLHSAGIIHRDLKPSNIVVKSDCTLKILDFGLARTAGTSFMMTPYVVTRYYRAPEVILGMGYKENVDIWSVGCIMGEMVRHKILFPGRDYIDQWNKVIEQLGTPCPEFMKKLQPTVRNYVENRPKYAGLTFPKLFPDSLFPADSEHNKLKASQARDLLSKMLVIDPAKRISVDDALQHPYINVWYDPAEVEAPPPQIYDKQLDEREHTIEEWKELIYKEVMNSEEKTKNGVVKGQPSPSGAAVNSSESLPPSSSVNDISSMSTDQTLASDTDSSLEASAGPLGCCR
Compound,Kd (read-out: Kd) [µM],Kd (read-out: pKd (converted)) [µM]
Oc1ccc2nc(-c3ccc4ccccc4c3)n(-c3ccnc(NC4CCOCC4)n3)c2c1,6,6.03
c1ccc2cc(-c3nc4ccccc4n3-c3ccnc(NC4CCCCC4)c3)ccc2c1,5.26,5.25
c1ccc2cc(-c3nc4ccccc4n3-c3ccnc(NC4CCOCC4)c3)ccc2c1,4.65,4.68
C[C@H](O)CNc1cc(-n2c(-c3ccc4ccccc4c3)nc3ccccc32)ccn1,12.7,12.6
COc1ccc2c(c1)nc(-c1ccc3ccccc3c1)n2-c1ccnc(NC2CCCCC2)c1,176,178
COc1ccc2c(c1)nc(-c1ccc(Cl)c(Cl)c1)n2-c1ccnc(NC2CCCCC2)c1,18.1,18.2
O=C(C1CC1)N1CCC[C@@H](Nc2cc(-n3c(-c4ccc5ccccc5c4)nc4ccccc43)ccn2)C1,10.7,10.7
Oc1ccc2c(c1)nc(-c1ccc3ccccc3c1)n2-c1ccnc(NC2CCCCC2)c1,24.5,24.5
Oc1ccc2c(c1)nc(-c1ccc3ccccc3c1)n2-c1ccnc(NC2CCOCC2)c1,10,10
Oc1ccc2c(c1)nc(-c1ccc3ccccc3c1)n2-c1ccnc(N[C@@H]2CCCNC2)c1,6.05,6.03
O=C(C1CC1)N1CCC[C@@H](Nc2cc(-n3c(-c4ccc5ccccc5c4)nc4cc(O)ccc43)ccn2)C1,27.7,27.5
C[C@H](O)CNc1cc(-n2c(-c3cccc(O)c3)nc3ccccc32)ccn1,19.1,19.1
Oc1ccc2c(c1)nc(-c1ccc(Cl)c(Cl)c1)n2-c1ccnc(NC2CCCCC2)c1,13.8,13.8
Clc1ccc(-c2nc3ccccc3n2-c2ccnc(NC3CCOCC3)n2)cc1Cl,21.8,21.9
c1ccc2cc(-c3nc4ccccc4n3-c3ccnc(N[C@@H]4CCCNC4)n3)ccc2c1,2.98,2.95
COc1ccc2c(c1)nc(-c1ccc3ccccc3c1)n2-c1ccnc(N[C@@H]2CCCN(C(=O)C3CC3)C2)n1,2.91,2.88
O=C(C1CC1)N1CCC[C@@H](Nc2nccc(-n3c(-c4ccc(Cl)c(Cl)c4)nc4ccccc43)n2)C1,7.69,7.76
Oc1ccc2nc(-c3ccc4ccccc4c3)n(-c3ccnc(NC4CCCCC4)n3)c2c1,31.7,31.6

# These reach a lower Kd (read-out: Kd). Values come first.
Kd (read-out: Kd) [µM],Kd (read-out: pKd (converted)) [µM],Compound
1.66,1.66,Oc1ccc2c(c1)nc(-c1ccc3ccccc3c1)n2-c1ccnc(NC2CCOCC2)n1
2.65,2.63,O=C(C1CC1)N1CCC[C@@H](Nc2nccc(-n3c(-c4ccc5ccccc5c4)nc4cc(O)ccc43)n2)C1
2.64,2.63,O=C(C1CC1)N1CCC[C@@H](Nc2cc(-n3c(-c4cccc(O)c4)nc4ccccc43)ccn2)C1
1.75,1.74,c1ccc2cc(-c3nc4ccccc4n3-c3ccnc(NC4CCCCC4)n3)ccc2c1
2.33,2.34,c1ccc2cc(-c3nc4ccccc4n3-c3ccnc(NC4CCOCC4)n3)ccc2c1
0.743,0.741,COc1ccc2c(c1)nc(-c1ccc3ccccc3c1)n2-c1ccnc(NC2CCCCC2)n1
1.77,1.74,COc1ccc2nc(-c3ccc4ccccc4c3)n(-c3ccnc(NC4CCCCC4)n3)c2c1
1.93,1.95,O=C(C1CC1)N1CCC[C@@H](Nc2nccc(-n3c(-c4ccc5ccccc5c4)nc4ccccc43)n2)C1
1.17,1.17,COc1ccc2nc(-c3ccc4ccccc4c3)n(-c3ccnc(N[C@@H]4CCCN(C(=O)C5CC5)C4)n3)c2c1
1.89,1.91,Oc1ccc2c(c1)nc(-c1ccc3ccccc3c1)n2-c1ccnc(NC2CCCCC2)n1
